Laboratory results taken from the supplement of paper PMC10307832.

Tests used:
Assay in all cases: relative viability (nuclei count vs DMSO), 5 days (fraction); higher = more cells survive
[1] = system: NCI-H2347
Method in brief: (§1)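 Five library-drug doses in √10 steps were combined with a fixed anchor-drug dose, or a single drug was given alone, by pin tool to lung cancer cell lines in 1536-well plates the day after seeding. Nuclei were stained and counted after 5 days. Relative viability is the nuclei count in treated wells over that in vehicle wells, taken as the median of duplicate plates.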

[2] = system: NCI-H1915
Method in brief: as §1

[3] = system: NCI-H1993
Method in brief: as §1

[4] = system: NCI-H1651
Method in brief: as §1

[5] = system: COR-L23
Method in brief: as §1

[6] = system: PC-14
Method in brief: as §1

[7] = system: EPLC-272H
Method in brief: as §1

[8] = system: LU99A
Method in brief: as §1

[9] = system: NCI-H2023
Method in brief: as §1

[10] = system: NCI-H838
Method in brief: as §1

[11] = system: NCI-H1355
Method in brief: as §1

[12] = system: HCC-78
Method in brief: as §1

[13] = system: HCC-15
Method in brief: as §1

[14] = system: ABC-1
Method in brief: as §1

[15] = system: UMC-11
Method in brief: as §1

[16] = system: HARA
Method in brief: as §1

[17] = system: NCI-H2085
Method in brief: as §1

[18] = system: NCI-H650
Method in brief: as §1

[19] = system: NCI-H2126
Method in brief: as §1

[20] = system: LC-2-ad
Method in brief: as §1

[21] = system: SW 1573
Method in brief: as §1

[22] = system: NCI-H358
Method in brief: as §1

[23] = system: NCI-H2342
Method in brief: as §1

SMILES: CC1(C)CCC(c2ccc(Cl)cc2)=C(CN2CCN(c3ccc(C(=O)NS(=O)(=O)c4ccc(N[C@H](CCN5CCOCC5)CSc5ccccc5)c(S(=O)(=O)C(F)(F)F)c4)cc3)CC2)C1 [Navitoclax] + CC(=O)c1c(C)c2cnc(Nc3ccc(N4CCNCC4)cn3)nc2n(C2CCCC2)c1=O [Palbociclib] (partner 0.5 µM)
- relative viability ([1]; first compound 0.005 µM): 0.468
- relative viability ([1]; first compound 0.01581 µM): 0.48
- relative viability ([1]; first compound 0.05 µM): 0.396
- relative viability ([1]; first compound 0.1581 µM): 0.439
- relative viability ([1]; first compound 0.5 µM): 0.377
- relative viability ([2]; first compound 0.005 µM): 0.585
- relative viability ([2]; first compound 0.01581 µM): 0.544
- relative viability ([2]; first compound 0.05 µM): 0.499
- relative viability ([2]; first compound 0.1581 µM): 0.507
- relative viability ([2]; first compound 0.5 µM): 0.509
- relative viability ([3]; first compound 0.005 µM): 0.7
- relative viability ([3]; first compound 0.01581 µM): 0.744
- relative viability ([3]; first compound 0.05 µM): 0.593
- relative viability ([3]; first compound 0.1581 µM): 0.749
- relative viability ([3]; first compound 0.5 µM): 0.653
- relative viability ([4]; first compound 0.005 µM): 0.513
- relative viability ([4]; first compound 0.01581 µM): 0.552
- relative viability ([4]; first compound 0.05 µM): 0.494
- relative viability ([4]; first compound 0.1581 µM): 0.513
- relative viability ([4]; first compound 0.5 µM): 0.54
- relative viability ([5]; first compound 0.005 µM): 0.36
- relative viability ([5]; first compound 0.01581 µM): 0.309
- relative viability ([5]; first compound 0.05 µM): 0.28
- relative viability ([5]; first compound 0.1581 µM): 0.331
- relative viability ([5]; first compound 0.5 µM): 0.278
- relative viability ([6]; first compound 0.005 µM): 0.537
- relative viability ([6]; first compound 0.01581 µM): 0.466
- relative viability ([6]; first compound 0.05 µM): 0.607
- relative viability ([6]; first compound 0.1581 µM): 0.528
- relative viability ([6]; first compound 0.5 µM): 0.509
- relative viability ([7]; first compound 0.005 µM): 0.325
- relative viability ([7]; first compound 0.05 µM): 0.324
- relative viability ([7]; first compound 0.1581 µM): 0.31
- relative viability ([7]; first compound 0.5 µM): 0.297
- relative viability ([8]; first compound 0.005 µM): 0.392
- relative viability ([8]; first compound 0.01581 µM): 0.433
- relative viability ([8]; first compound 0.1581 µM): 0.437
- relative viability ([8]; first compound 0.5 µM): 0.48
- relative viability ([9]; first compound 0.005 µM): 0.421
- relative viability ([9]; first compound 0.01581 µM): 0.427
- relative viability ([9]; first compound 0.05 µM): 0.384
- relative viability ([9]; first compound 0.1581 µM): 0.401
- relative viability ([9]; first compound 0.5 µM): 0.439
- relative viability ([10]; first compound 0.005 µM): 0.193
- relative viability ([10]; first compound 0.01581 µM): 0.253
- relative viability ([10]; first compound 0.05 µM): 0.177
- relative viability ([10]; first compound 0.1581 µM): 0.209
- relative viability ([10]; first compound 0.5 µM): 0.224
- relative viability ([11]; first compound 0.005 µM): 0.381
- relative viability ([11]; first compound 0.01581 µM): 0.438
- relative viability ([11]; first compound 0.05 µM): 0.429
- relative viability ([11]; first compound 0.1581 µM): 0.385
- relative viability ([11]; first compound 0.5 µM): 0.409
- relative viability ([12]; first compound 0.005 µM): 0.509
- relative viability ([12]; first compound 0.01581 µM): 0.428
- relative viability ([12]; first compound 0.05 µM): 0.441
- relative viability ([12]; first compound 0.1581 µM): 0.448
- relative viability ([12]; first compound 0.5 µM): 0.489
- relative viability ([13]; first compound 0.005 µM): 0.738
- relative viability ([13]; first compound 0.01581 µM): 0.77
- relative viability ([13]; first compound 0.05 µM): 0.655
- relative viability ([13]; first compound 0.1581 µM): 0.773
- relative viability ([13]; first compound 0.5 µM): 0.687
- relative viability ([14]; first compound 0.005 µM): 0.896
- relative viability ([14]; first compound 0.01581 µM): 0.845
- relative viability ([14]; first compound 0.05 µM): 0.691
- relative viability ([14]; first compound 0.1581 µM): 0.747
- relative viability ([14]; first compound 0.5 µM): 0.639
- relative viability ([15]; first compound 0.005 µM): 0.388
- relative viability ([15]; first compound 0.01581 µM): 0.305
- relative viability ([15]; first compound 0.05 µM): 0.333
- relative viability ([15]; first compound 0.1581 µM): 0.322
- relative viability ([15]; first compound 0.5 µM): 0.319
- relative viability ([16]; first compound 0.005 µM): 0.236
- relative viability ([16]; first compound 0.01581 µM): 0.271
- relative viability ([16]; first compound 0.05 µM): 0.243
- relative viability ([16]; first compound 0.1581 µM): 0.191
- relative viability ([16]; first compound 0.5 µM): 0.216
- relative viability ([17]; first compound 0.005 µM): 0.45
- relative viability ([17]; first compound 0.01581 µM): 0.456
- relative viability ([17]; first compound 0.05 µM): 0.379
- relative viability ([17]; first compound 0.1581 µM): 0.482
- relative viability ([17]; first compound 0.5 µM): 0.502
- relative viability ([18]; first compound 0.005 µM): 0.326
- relative viability ([18]; first compound 0.01581 µM): 0.35
- relative viability ([18]; first compound 0.05 µM): 0.315
- relative viability ([18]; first compound 0.1581 µM): 0.304
- relative viability ([18]; first compound 0.5 µM): 0.336
- relative viability ([19]; first compound 0.005 µM): 0.35
- relative viability ([19]; first compound 0.01581 µM): 0.355
- relative viability ([19]; first compound 0.05 µM): 0.342
- relative viability ([19]; first compound 0.1581 µM): 0.303
- relative viability ([19]; first compound 0.5 µM): 0.366
- relative viability ([20]; first compound 0.005 µM): 0.505
- relative viability ([20]; first compound 0.01581 µM): 0.452
- relative viability ([20]; first compound 0.05 µM): 0.456
- relative viability ([20]; first compound 0.1581 µM): 0.413
- relative viability ([20]; first compound 0.5 µM): 0.412
- relative viability ([21]; first compound 0.005 µM): 0.417
- relative viability ([21]; first compound 0.01581 µM): 0.41
- relative viability ([21]; first compound 0.05 µM): 0.448
- relative viability ([21]; first compound 0.1581 µM): 0.399
- relative viability ([21]; first compound 0.5 µM): 0.38
- relative viability ([22]; first compound 0.005 µM): 0.128
- relative viability ([22]; first compound 0.01581 µM): 0.147
- relative viability ([22]; first compound 0.05 µM): 0.142
- relative viability ([22]; first compound 0.1581 µM): 0.121
- relative viability ([22]; first compound 0.5 µM): 0.134
- relative viability ([23]; first compound 0.005 µM): 0.611
- relative viability ([23]; first compound 0.01581 µM): 0.531
- relative viability ([23]; first compound 0.05 µM): 0.541
- relative viability ([23]; first compound 0.1581 µM): 0.477
- relative viability ([23]; first compound 0.5 µM): 0.629
